The assay concerns the target T1, Recombinant human TLR7 (Homo sapiens, UniProt Q9NYK1).
T1 construct: expressed in transfected cells; host or cells: HEK293 cell line stably expressing the pNiFty2-SEAP reporter plasmid; TLR7 in pUNO vector
T1 sequence (Q9NYK1 27-1049): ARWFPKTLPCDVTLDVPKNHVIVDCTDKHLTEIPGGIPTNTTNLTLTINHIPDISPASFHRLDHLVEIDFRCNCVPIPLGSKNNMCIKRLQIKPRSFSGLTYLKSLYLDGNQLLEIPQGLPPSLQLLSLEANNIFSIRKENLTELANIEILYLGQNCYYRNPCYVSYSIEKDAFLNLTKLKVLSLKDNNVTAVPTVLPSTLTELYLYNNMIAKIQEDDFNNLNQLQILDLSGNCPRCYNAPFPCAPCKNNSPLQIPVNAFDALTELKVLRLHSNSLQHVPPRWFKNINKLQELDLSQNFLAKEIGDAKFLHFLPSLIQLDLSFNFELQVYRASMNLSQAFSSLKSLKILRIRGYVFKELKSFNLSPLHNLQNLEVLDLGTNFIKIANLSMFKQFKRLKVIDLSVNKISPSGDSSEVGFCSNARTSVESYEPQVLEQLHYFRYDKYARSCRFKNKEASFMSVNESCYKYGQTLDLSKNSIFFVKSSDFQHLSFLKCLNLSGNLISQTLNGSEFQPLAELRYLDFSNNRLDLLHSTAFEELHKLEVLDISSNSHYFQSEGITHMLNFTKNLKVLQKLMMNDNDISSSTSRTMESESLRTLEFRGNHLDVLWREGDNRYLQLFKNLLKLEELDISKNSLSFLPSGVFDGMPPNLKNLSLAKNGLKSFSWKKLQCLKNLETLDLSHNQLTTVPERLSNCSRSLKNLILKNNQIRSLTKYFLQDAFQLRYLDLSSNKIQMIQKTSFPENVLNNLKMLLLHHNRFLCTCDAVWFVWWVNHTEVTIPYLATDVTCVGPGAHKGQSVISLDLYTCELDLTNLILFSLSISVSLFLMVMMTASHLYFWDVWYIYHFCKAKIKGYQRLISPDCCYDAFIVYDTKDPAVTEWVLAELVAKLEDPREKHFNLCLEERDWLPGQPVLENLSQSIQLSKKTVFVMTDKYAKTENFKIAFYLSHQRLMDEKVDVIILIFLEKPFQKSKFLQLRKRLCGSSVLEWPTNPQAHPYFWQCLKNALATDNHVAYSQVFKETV
As to the kind of experiment: Human TLR7 Assay (SEAP reporter in HEK293 cells). It counts as cell-based. As to conditions: HEK293 cell line stably expressing human TLR7 and pNiFty2-SEAP reporter; SEAP induction after overnight incubation at 37° C., 0.1% (v/v) DMSO. From the text:
Recombinant human TLR7 was stably expressed in a HEK293 cell line already stably expressing the pNiFty2-SEAP reporter plasmid; integration of the reporter gene was maintained by selection with the antibiotic zeocin. The most common variant sequence of human TLR7 (represented by the EMBL sequence AF240467) was cloned into the mammalian cell expression vector pUNO and transfected into this reporter cell-line. Transfectants with stable expression were selected using the antibiotic blasticidin. In this reporter cell-line, expression of secreted alkaline phosphatase (SEAP) is controlled by an NFkB/ELAM-1 composite promoter comprising five NFkB sites combined with the proximal ELAM-1 promoter. TLR signaling leads to the translocation of NFkB and to activation of the promoter results in expression of the SEAP gene. TLR7-specific activation was assessed by determining the level of SEAP produced following overnight incubation of the cells at 37° C. with the standard compound in the presence of 0.1% (v/v) dimethylsulfoxide (DMSO). Concentration dependent induction of SEAP production by compounds was expressed as the concentration of compound which produced half of the maximal level of SEAP induction for that compound (pEC50)

By EC50 is commonly meant the concentration needed to bring the measured effect to its halfway point. For the molecule `CCCCOc1nc(N)c2[nH]c(=O)n(CCCN3CCCC3)c2n1` [Example 1, 6-Amino-2-butoxy-9-(3-pyrrolidin-1-ylpropyl)-7,9-dihydro-8H-purin-8-one], the 50% effective concentration (EC50) is 398 nM.
Under `CCCCOc1nc(N)c2[nH]c(=O)n(CCCN3CCC[C@H]3C(=O)N(C)C)c2n1` [Example 2, 1-[3-(6-Amino-2-butoxy-8-oxo-7,8-dihydro-9H-purin-9-yl)propyl]-N,N-dimethyl-L-prolinamide] stands 3160 nM; under `CCCCOc1nc(N)c2[nH]c(=O)n(CCCN3CCC[C@H]3COC)c2n1` [Example 3, 6-Amino-2-butoxy-9-{3-[(25)-2-(methoxymethyl)pyrrolidin-1-yl]propyl}-7,9-dihydro-8H-purin-8-one], 2510 nM.
Under `CCCCOc1nc(N)c2[nH]c(=O)n(CCCN(C)CC(=O)N(C)C)c2n1` [Example 4, N^2-[3-(6-Amino-2-butoxy-8-oxo-7,8-dihydro-9H-purin-9-yl)propyl]-N^1,N^1,N^2-trimethylglycinamide] stands 251 nM.

Source of the values: patent US8067413B2, “9-substituted-8-oxo-adenine compounds as toll-like receptor (TLR7 ) modulators” (AstraZeneca AB, priority 2007, dated 2011).
